Results taken from US20130052636A1, “RAPID DETECTION OF METABOLIC ACTIVITY” (SPECTRAL PLATFORMS, INC., priority 2011, published 2013).

Experiments:
Assay type in all cases: cell-based
HL60 human cells = assay: Toxin detection: lycopene Raman peak in human serum, trypticase soy broth and HL60 cells; conditions: 4 μM, FIG. 24, 25
Excerpt: FIG. 24 depicts the results of one toxin detection experiment. A control sample comprising human serum (centrifuged from the blood collected from a healthy volunteer) was combined with trypticase soy broth and HL60 human cells. […] FIG. 25 plots the normalized intensity for the 1516 cm^−1 peak as a function of time for the rhizoxin containing sample.

[1] = tested on: methicillin resistant S. aureus (MRSA); assay: Raman marker peak height versus time in serum with MRSA (FIG. 6); conditions: representative traces 32 and 34, FIG. 6
Excerpt: As described above, if the iron sequestration process is monitored via Raman spectroscopy, then the test involves the collection of a series of Raman spectra over time. A hypothetical depiction of this collection for a non-iron marker is depicted in FIG. 5. The individual Raman spectra comprise one or more peaks such as […], and 23 that, in the case of iron sequestration, are ascribed either to Fe-Tr (21 and 22) or to the apo-Tr and/or serum lipoproteins (23). The peak heights from one of the Fe-Tr peaks (for instance, 22) are monitored over time, as depicted in FIG. 5. If viable pathogens are present, and are sequestering iron to afford Fe-Tr, then the iron-transferrin peaks decrease over time, as depicted by traces 33 and 34 in FIG. 6. On the other hand, if viable pathogens are not present, or if viable pathogens are present in the assay together with an effective antimicrobial agent, then the peak heights are nearly invariant with time.
With reference to FIGS. 5 and 6, if the lycopene consumption is monitored via Raman spectroscopy as an indicator of metabolic activity, then the test involves the collection of a series of Raman spectra over time. A representative depiction of this collection is depicted in FIG. 5. […]

S. aureus = assay: Lycopene Raman peak (1516 cm^-1) slope versus time in inoculated serum, MIC estimate; conditions: S. aureus 10^5 cfu/mL; vancomycin 1, 5 and 20 μg/mL; FIG. 17
Experimental: FIGS. 17 & 18 illustrate the method by which a marker can be used to estimate the minimum inhibitory concentration MIC. FIG. 17 illustrates the Raman peak height at 1516 cm^−1 (which has been ascribed to lycopene) as a function of time for several samples. The samples include a serum sample that has been artificially inoculated with S. aureus to a concentration of 10^5 cfu/mL, and additional samples that also contain various concentrations of vancomycin (1, 5 and 20 μg/mL) as indicated in the legend.
FIG. 18 plots the slope of all the traces in FIG. 17, as a function of added vancomycin concentration. The dashed horizontal line corresponds to the slope of the sample without any added vancomycin, and the 3 data points correspond to vancomycin concentrations of 1, 5 and 20 μg/mL. The solid black line is a logarithmic fit of the 3 data points, and the MIC corresponds to the point at which the solid black line intersects the dashed line.

Compound	lycopene peak height (1516 cm^-1) over time (HL60 human cells)	effectiveness of dose by peak height versus time trace [1]	slope of lycopene 1516 cm^-1 peak intensity versus time (S. aureus)
CO[C@@H](/C(C)=C/C=C/C(C)=C/c1coc(C)n1)[C@@H](C)[C@@H]1C[C@H](O)[C@@]2(C)O[C@@H]2/C=C/[C@@H](C)[C@H]2C[C@H](CC(=O)O2)C[C@@H]2O[C@H]2C(=O)O1 [rhizoxin]	increases significantly at first, followed by a steady decline	–	–
CC1(C)S[C@@H]2[C@H](NC(=O)[C@H](N)c3ccccc3)C(=O)N2[C@H]1C(=O)O [ampicillin]	–	ineffective dose	–
CN[C@H](CC(C)C)C(=O)N[C@H]1C(=O)N[C@@H](CC(N)=O)C(=O)N[C@H]2C(=O)N[C@H]3C(=O)N[C@H](C(=O)N[C@H](C(=O)O)c4cc(O)cc(O)c4-c4cc3ccc4O)[C@H](O)c3ccc(c(Cl)c3)Oc3cc2cc(c3O[C@@H]2O[C@H](CO)[C@@H](O)[C@H](O)[C@H]2O[C@H]2C[C@](C)(N)[C@H](O)[C@H](C)O2)Oc2ccc(cc2Cl)[C@H]1O [vancomycin]	–	effective dose	slope progressively decreases as more vancomycin is added
